Consider eleven compounds from PubChem BioAssay (NCI).

Several values for one entry are separate records, joined by “and”; a condition that tells them apart may be missing. Identical values can stand only once.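 Results reflect a 48-hour exposure of cells in 96-well plates to compound at five concentrations. At the GI50, growth is halved. TGI: concentration producing complete growth inhibition.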 Where only a bound is given, the exact number is not on record here.

One experiment concerns NCI-H226 lung. Briefly: NCI anticancer screen, dose series, 48 h.
As to `CCCOc1ccc2sc(NC(=O)OC)nc2c1`, the GI50 was more than 100 µM and the TGI is more than 100 µM.

Turning to `OCCCNc1nccc(-c2c(-c3ccc(F)cc3)nn3cc(C(F)(F)F)ccc23)n1`, the GI50 was 9.49 µM and the TGI was more than 25 µM.

As to `O=S(=O)(Nc1ccc(F)cc1F)c1ccc(-c2cnc(C3CC3)o2)cc1`, the GI50 is 1.7 µM and the TGI amounted to 43.3 µM.

For `O=C(CSC1CCc2ccccc21)N/N=C/c1ccccc1O` (stereo not given), the GI50 is 3.11 µM and the TGI is 35.8 µM.

The compound `C=C1C(=O)OC2CC(C)C3(O)CCC(=O)C3(C)CC12` (stereo not given) registered a TGI of more than 100 µM.

As for `O=C1NC(=O)/C(=C\c2ccccc2)C2=C1CCCC2`, the GI50 is 10.8 µM and the TGI is 23 µM.

As to `O=C(Nc1ccc(F)cc1)c1cc(S(=O)(=O)Nc2nc3ccccc3o2)c(SCc2ccccc2)cc1Cl`, the GI50 is 12.1 µM and the TGI worked out at 28.4 µM.

Turning to `C#COc1cccc(Nc2c(C#N)cnc3ncc(NC(=O)CCl)cc23)c1`, the GI50 is more than 62.5 µM and the TGI is more than 62.5 µM.

Take `CN(CCO)c1ccc(N2Cc3ccccc3OC3=C2C(=O)c2c(O)ccc(O)c2C3=O)cn1`: the GI50 is 0.854 µM and the TGI was determined as 2.95 µM.

For `CC[C@H]1CN2CCc3cc(OC)c(OC)cc3[C@@H]2C[C@@H]1C[C@H]1NCCc2c1[nH]c1ccc(O)cc21`, the GI50 was 0.0282 µM and 0.0409 µM; the TGI is 0.0778 µM and 0.261 µM and 0.0326 µM.

On to `CCCCCOc1ccc(/C=N/Nc2cc(C)nc3ccc(Br)cc23)cc1`, for which the GI50 is 1.85 µM and the TGI amounted to 4.32 µM.

For the next experiment, the system named is SF-539 CNS. Briefly: NCI anticancer screen, dose series, 48 h.
As to `CCCOc1ccc2sc(NC(=O)OC)nc2c1`, the GI50 was 2.91 µM and the TGI was more than 100 µM.

For the compound `OCCCNc1nccc(-c2c(-c3ccc(F)cc3)nn3cc(C(F)(F)F)ccc23)n1`, the GI50 was more than 25 µM and the TGI was more than 25 µM.

Consider `O=S(=O)(Nc1ccc(F)cc1F)c1ccc(-c2cnc(C3CC3)o2)cc1`, for which the GI50 was 0.674 µM and the TGI was 5.71 µM.

`O=C(CSC1CCc2ccccc21)N/N=C/c1ccccc1O` (stereo not given): the GI50 is 3.03 µM and the TGI stood at 17.2 µM.

In turn, `C=C1C(=O)OC2CC(C)C3(O)CCC(=O)C3(C)CC12` (stereo not given) showed a TGI of 32.7 µM.

As for `O=C1NC(=O)/C(=C\c2ccccc2)C2=C1CCCC2`, the GI50 was 11.6 µM and the TGI amounted to 24.1 µM.

Regarding `O=C(Nc1ccc(F)cc1)c1cc(S(=O)(=O)Nc2nc3ccccc3o2)c(SCc2ccccc2)cc1Cl`, the GI50 is 17.1 µM and the TGI turned out to be 31.2 µM.

For the compound `C#COc1cccc(Nc2c(C#N)cnc3ncc(NC(=O)CCl)cc23)c1`, the GI50 was 13.9 µM and the TGI came to 37.6 µM.

Consider `CN(CCO)c1ccc(N2Cc3ccccc3OC3=C2C(=O)c2c(O)ccc(O)c2C3=O)cn1`, for which the GI50 was 0.214 µM and the TGI was determined as 0.524 µM.

Regarding `CC[C@H]1CN2CCc3cc(OC)c(OC)cc3[C@@H]2C[C@@H]1C[C@H]1NCCc2c1[nH]c1ccc(O)cc21`, the GI50 is 0.0211 µM and 0.0232 µM; the TGI is 0.0476 µM and 0.0513 µM and 0.0408 µM.

With `CCCCCOc1ccc(/C=N/Nc2cc(C)nc3ccc(Br)cc23)cc1`, the GI50 is 1.76 µM and the TGI stood at 3.23 µM.

A further experiment has as its system SF-268 CNS. Briefly: NCI anticancer screen, dose series, 48 h.
Turning to `CCCOc1ccc2sc(NC(=O)OC)nc2c1`, the GI50 is more than 100 µM and the TGI is more than 100 µM.

`OCCCNc1nccc(-c2c(-c3ccc(F)cc3)nn3cc(C(F)(F)F)ccc23)n1`: the GI50 was 16.3 µM and the TGI was more than 25 µM.

For the compound `O=S(=O)(Nc1ccc(F)cc1F)c1ccc(-c2cnc(C3CC3)o2)cc1`, the GI50 was 4.82 µM and the TGI is more than 70.4 µM.

For `O=C(CSC1CCc2ccccc21)N/N=C/c1ccccc1O` (stereo not given), the GI50 was 3.33 µM and the TGI was more than 100 µM.

`C=C1C(=O)OC2CC(C)C3(O)CCC(=O)C3(C)CC12` (stereo not given): the TGI was 64.5 µM.

Regarding `O=C1NC(=O)/C(=C\c2ccccc2)C2=C1CCCC2`, the GI50 was 4.06 µM and the TGI came out at 14.8 µM.

Regarding `O=C(Nc1ccc(F)cc1)c1cc(S(=O)(=O)Nc2nc3ccccc3o2)c(SCc2ccccc2)cc1Cl`, the GI50 is 17.9 µM and the TGI came out at 43.1 µM.

For the compound `C#COc1cccc(Nc2c(C#N)cnc3ncc(NC(=O)CCl)cc23)c1`, the GI50 is 20.6 µM and the TGI is more than 62.5 µM.

On to `CN(CCO)c1ccc(N2Cc3ccccc3OC3=C2C(=O)c2c(O)ccc(O)c2C3=O)cn1`, for which the GI50 is 0.274 µM and the TGI turned out to be 0.938 µM.

On to `CC[C@H]1CN2CCc3cc(OC)c(OC)cc3[C@@H]2C[C@@H]1C[C@H]1NCCc2c1[nH]c1ccc(O)cc21`, for which the GI50 is 0.0315 µM and 0.0253 µM; the TGI is 0.0931 µM and 0.075 µM and 0.263 µM.

Consider `CCCCCOc1ccc(/C=N/Nc2cc(C)nc3ccc(Br)cc23)cc1`, for which the GI50 is 1.97 µM and the TGI came to 3.73 µM.

The subject of another experiment is TK-10 renal. Briefly: NCI anticancer screen, dose series, 48 h.
`CCCOc1ccc2sc(NC(=O)OC)nc2c1`: the GI50 is more than 24.5 µM and the TGI is more than 100 µM.

`OCCCNc1nccc(-c2c(-c3ccc(F)cc3)nn3cc(C(F)(F)F)ccc23)n1`: the GI50 was 15.9 µM and the TGI was more than 25 µM.

With `O=S(=O)(Nc1ccc(F)cc1F)c1ccc(-c2cnc(C3CC3)o2)cc1`, the GI50 is 3.2 µM and the TGI came to 48.3 µM.

Consider `O=C(CSC1CCc2ccccc21)N/N=C/c1ccccc1O` (stereo not given), for which the GI50 is 6.1 µM and the TGI was found to be 73.8 µM.

`C=C1C(=O)OC2CC(C)C3(O)CCC(=O)C3(C)CC12` (stereo not given) registered a TGI of 99.1 µM.

In the case of `O=C1NC(=O)/C(=C\c2ccccc2)C2=C1CCCC2`, the GI50 was 12 µM and the TGI stood at 25.3 µM.

As for `O=C(Nc1ccc(F)cc1)c1cc(S(=O)(=O)Nc2nc3ccccc3o2)c(SCc2ccccc2)cc1Cl`, the GI50 was 16.4 µM and the TGI is 31.5 µM.

Regarding `C#COc1cccc(Nc2c(C#N)cnc3ncc(NC(=O)CCl)cc23)c1`, the GI50 was more than 62.5 µM and the TGI was more than 62.5 µM.

Turning to `CN(CCO)c1ccc(N2Cc3ccccc3OC3=C2C(=O)c2c(O)ccc(O)c2C3=O)cn1`, the GI50 was 0.248 µM and the TGI is 0.632 µM.

Consider `CC[C@H]1CN2CCc3cc(OC)c(OC)cc3[C@@H]2C[C@@H]1C[C@H]1NCCc2c1[nH]c1ccc(O)cc21`, for which the GI50 was 0.0943 µM; the TGI is 0.277 µM and 0.875 µM and 0.728 µM.

For the compound `CCCCCOc1ccc(/C=N/Nc2cc(C)nc3ccc(Br)cc23)cc1`, the GI50 was 1.87 µM and the TGI was 3.42 µM.

A further experiment has as its system HCC-2998 colon. Nature of the experiment: NCI anticancer screen, dose series, 48 h.
Regarding `CCCOc1ccc2sc(NC(=O)OC)nc2c1`, the GI50 was 24.5 µM and the TGI was more than 100 µM.

With `OCCCNc1nccc(-c2c(-c3ccc(F)cc3)nn3cc(C(F)(F)F)ccc23)n1`, the GI50 was more than 23.4 µM and the TGI is more than 25 µM.

With `O=S(=O)(Nc1ccc(F)cc1F)c1ccc(-c2cnc(C3CC3)o2)cc1`, the GI50 was 2.39 µM and the TGI is 27.3 µM.

Regarding `O=C(CSC1CCc2ccccc21)N/N=C/c1ccccc1O` (stereo not given), the GI50 was 5.59 µM and the TGI came out at 35.4 µM.

Turning to `C=C1C(=O)OC2CC(C)C3(O)CCC(=O)C3(C)CC12` (stereo not given), the TGI came out at 50 µM.

In the case of `O=C1NC(=O)/C(=C\c2ccccc2)C2=C1CCCC2`, the GI50 was 7.46 µM and the TGI turned out to be 14 µM.

On to `O=C(Nc1ccc(F)cc1)c1cc(S(=O)(=O)Nc2nc3ccccc3o2)c(SCc2ccccc2)cc1Cl`, for which the GI50 is 18.4 µM and the TGI is 32.6 µM.

Turning to `C#COc1cccc(Nc2c(C#N)cnc3ncc(NC(=O)CCl)cc23)c1`, the GI50 was more than 62.5 µM and the TGI is more than 62.5 µM.

`CN(CCO)c1ccc(N2Cc3ccccc3OC3=C2C(=O)c2c(O)ccc(O)c2C3=O)cn1`: the GI50 is 0.249 µM and the TGI was found to be 0.608 µM.

Consider `CC[C@H]1CN2CCc3cc(OC)c(OC)cc3[C@@H]2C[C@@H]1C[C@H]1NCCc2c1[nH]c1ccc(O)cc21`, for which the GI50 was 0.0229 µM and 0.0287 µM; the TGI was 0.0568 µM and 0.0856 µM and 0.0758 µM.

Turning to `CCCCCOc1ccc(/C=N/Nc2cc(C)nc3ccc(Br)cc23)cc1`, the GI50 is 2.07 µM and the TGI stood at 3.8 µM.
